# Patent US11306360B2, “Assessment of cellular signaling pathway activity using linear combination(s) of target gene expressions” (KONINKLIJKE PHILIPS N.V., priority 2012, dated 2022)
# Experiments:
# AR pathway = details: LNCaP stimulated with DHT for 4 hours, compared with 16 hours
# Text: FIG. 13 AR training results using fuzzy transformed expression data of GSE7868, “all probesets” as mentioned in Table 4 and “black and white” weights. The 1st and 2nd group of samples (from the left) has been used as negative and positive training samples, respectively.
# The expression data of these stimulation experiments are publically available in the GSE7868 dataset that has been fuzzy transformed as described herein. […] The 1st and 2nd group of samples from the left has been used as negative and positive training samples, respectively.
# ER pathway [1] = test: Predicted ER pathway activity in wild type MCF7 cell line (GSE21618); format: cell-based
# Procedure: (§1) The ER (pseudo-)linear model was trained using continuous expression data of GSE8597, the “most discriminative probesets” (underlined probesets in Table 2) and “log odds” weights (see training results in FIG. 10). Different stimulation regimes were applied, denoted in the different groups of samples, and the expression of mRNA was measured by microarray at 0, 1, 2, 3, 6, 12, 24, 48 hours, denoted by the consecutive samples in the groups.
# (§2) The (pseudo-)linear model of the ER pathway, constructed using a node for the transcription factor presence and a layer of probesets (Table 2) associated with the target genes of the ER pathway, analogous to FIG. 2 as described herein, and trained as described herein, was used to calculate the ER pathway activity score.
# (§3) With respect to FIG. 20, Tamoxifen is a drug currently used for the treatment of ER+ (estrogen receptor positive) breast cancer. It acts as a partial antagonist of the estrogen receptor inhibiting the uncontrolled cell proliferation which is thought to be induced by ER signaling. […] Many studies have been conducted to investigate this so-called Tamoxifen resistance. The publicly available GSE21618 data set is the result of one of such study and contains microarray data of Tamoxifen resistant and wildtype MCF7 cell lines under different treatment regimes. […]
# ER pathway [2] = test: ER pathway activity score in MCF7 cells stimulated with or deprived of E2 (GSE11352); format: cell-based; details: MCF7, longer exposure times (12, 24, 48 hours) to ER stimulating agent
# Text: FIG. 12 ER pathway prediction in stimulation response data of MCF7 cells treated with ER stimulating agent (E2) or control for several treatment intervals (GSE11352, continuous data). The model is trained using continuous expression data of GSE8597, the “most discriminative probesets” (underlined probesets in Table 2) and “log odds” weights (see training results in FIG. 10).
# In another example, a publically available data set of MCF7 cell lines stimulated with or deprived of ER stimulating agent (E2) with expression levels measured at 12 hours, 24 hours and 48 hours after starting stimulation or deprivation (GSE11352) was used to calculate the ER activity scores using the trained ER (pseudo-)linear model as described herein. […] With the exception of the starvation of 48 hours, the predicted ER activity scores nicely correlates with the knowledge that prolonged stimulation result in higher ER activity and vice versa. Inversely, this example implies that the ER activity score can be used to monitor efficacy or inefficacy of stimulation or inhibition of ER activity treatments.
# ER pathway [3] = test: ER activity score validation in MCF7 breast cancer cell line (GSE9253); format: cell-based; details: MCF7 sample stimulated with E2, 3 hours
# Text: FIG. 17 ER validation results of a stimulation experiment with MCF7 cells (GSE9253, continuous data). The (pseudo-)linear model was trained using continuous expression data of GSE8597, the “most discriminative probesets” (underlined probesets in Table 2) and “log odds” weights (see training results in FIG. 10). It is clear from the MCF7 cells stimulated with E2, ER stimulating agent, that the defined threshold was set too high. The reason for this discrepancy could be a different stimulation regime (i.e. higher E2 concentration, but shorter stimulation time, etc.). Nevertheless, the difference of the calculated ER activity scores of the stimulated and non-stimulated cells is evident.
# In FIG. 17 the validation results of the trained ER (pseudo-)linear model is shown for two microarrays measured using a MCF7 breast cancer cell line sample, one stimulated with estradiol (E2) the other one with a negative control (EtOH), originating from the GSE9253 data set. The difference in ER activity score is evident from FIG. 17. […] This is the result of the threshold defining either an active or passive state was set too high for this particular experiment. […]
# ER pathway [4] = test: Predicted ER pathway activity in Tamoxifen resistant MCF7 cell line (GSE21618); format: cell-based; details: Tamoxifen resistant cell line stimulated with E2 and treated with Tamoxifen (TamR.E2_Tam); 1, 2, 3, 6, 12, 24 and 48 h
# Procedure: as §1, §2, §3
compound,measurement,setting,value
"C[C@]12CCC(=O)C[C@@H]1CC[C@@H]1[C@@H]2CC[C@]2(C)[C@@H](O)CC[C@@H]12 [DHT, Dihydrotestosterone]",AR activity,AR pathway,"demonstrates AR activity, albeit lower activity levels than the cells stimulated for 16 hours"
"C[C@]12CC[C@@H]3c4ccc(O)cc4CC[C@H]3[C@@H]1CC[C@@H]2O [E2, 17beta-estradiol]",ER activity predictions,ER pathway [1]; wild type MCF7 treated with 17beta-estradiol (wt1.E2),increasing ER positive activity predictions
same,ER pathway activity score,ER pathway [2],increase for longer exposure times
same,ER activity score,ER pathway [3],slightly negative ER activity score
CC/C(=C(\c1ccccc1)c1ccc(OCCN(C)C)cc1)c1ccccc1 [Tamoxifen],predicted ER pathway activity,ER pathway [4],ineffective
same,ER pathway activity score in time,ER pathway [1]; wild type MCF7 stimulated with E2 and treated with Tamoxifen (wt2.E2_Tam),decreasing ER pathway activity score in time
